The structures appear in SMILES notation.

The text below walks through data of US8785430B2, “Compound that can inhibit UBC13-UEV interactions, pharmaceutical compositions and therapeutic uses” (Consejo Superior de Investigaciones Cientificas, priority 2006, dated 2014).

Test [1] has as its system interaction between p53 and large T. The experiment in a line: Two-hybrid assay in yeasts, positive interaction control p53 - large T. It counts as cell-based. Conditions: 100 μM. The protocol:
Each of the 52 mixtures of peptoids was analyzed by means of this process in triplicate, in three independent experiments. The interaction between UBC13 and UEV1 in the absence of peptoids and the interaction between p53 and the SV40 large T protein were used as positive interaction controls in all these assays. The laminin and […] proteins were used as a negative control. The β-galactosidase activities for the UBC13-UEV1 interaction were standardized with respect to the β-galactosidase activities of the corresponding positive control thereof (p53-large T). The activities β-galactosidase standardized in that manner are illustrated in FIG. 2.
The effect of compounds Ia and Ib on the UBC13-UEV1 interaction in two-hybrid assays in yeasts was performed by incubating cells of the Saccharomyces cerevisiae strain AH109, grown in a selective medium, with 100 μM of either compound. The interaction of Sv40 large T and p53 proteins was used as positive interaction control. The intensity of the interactions was determined colorimetrically by means of detecting the β-galactosidase activity, using O-nitrophenyl-p-galactopyranoside (ONPG) as a substrate, each determination being performed in triplicate. […]

Test [2] deals with S. cerevisiae Δrad6 mutants. Briefly: Survival of S. cerevisiae Δrad6 mutants after ultraviolet radiation or MMS. It is filed as cell-based, Saccharomyces cerevisiae. Particulars: 100 μM; for rescue of the rad6 phenotype generated by treatment with MMS (survival): 0.03% MMS; for rescue of the rad6 phenotype induced by UV irradiation (survival): ultraviolet radiation. The procedure:
To determine if compounds Ia and Ib inhibit the function of Ubc13p-Mms2p, their capacity to mimic in S. cerevisiae the DNA repair phenotypes generated by the null mutation of ubc13 was evaluated. Thus, mutant strains in RAD6 or REV3 and the parent strain thereof (control) were used in viability assays after the exposure to ultraviolet radiation or MMS. The genotypes of the strains used are the following:
2) Strain Δrad6: MAT at his3Δ1 leu2Δ0 lys2Δ0 ura3Δ0 rad6::kanMX4
Cells were inoculated in liquid cultures with YPD medium overnight at 30° C., until reaching the log phase of growth. For the treatments with ultraviolet radiation, aliquots of cells, grown in the presence or absence of 100 μM of compounds Ia or Ib were irradiated in a Stratalinker instrument (Stratagene) at the energies indicated in FIGS. 7 and 8. For the treatment with the mutagenic agent MMS, aliquots of cells grown or not in medium with 100 μM of compounds Ia or Ib were incubated, 0.03% MMS being added, with subsequent incubation for the times indicated in FIGS. 7 and 8. After either treatment, 500 cells were seeded in plates with YPD medium, counting the colonies after 2 days.

Test [3] has as its system transcriptional activity of NF-κB induced by TNFα. The experiment in a line: NF-κB luciferase reporter assay, stimulation by TNFα in HeLa cells. It counts as cell-based. Particulars: TNFα 10 ng/mL; for inhibition of the stimulation of the transcriptional activity of NF-κB induced by TNFα: HeLa cells, different concentrations. The protocol:
To determine the activity of compounds Ia and Ib on the stimulation of the NFκ-B activity by TNFα, assays for inducing luciferase activity (determined with the Dual-Luciferase Reporter Assay System kit, Promega, catalog number E1910) generated by expression of the firefly (Photinus pyralis) luciferase gene directed by a promoter containing three recognition sites for NFκ-B were performed. To that end, HeLa cells were co-transfected with plasmid pRL-TK, encoding the Renilla reniformis Luciferase and being a transfection efficiency control, and plasmid prLUC, a plasmid which allows determining the transcriptional activity of NF-κB, using Fugene (Roche) as a transfection vehicle. 100,000 cells were seeded in 6-well plates (Costar). On the following day, the transfection complex was formed with 0.5 μg of each plasmid and 3 μl of Fugene for 15 minutes. The complex was added to the cells in Optimem medium (InVitrogen), and after 5 hours it was changed to complete medium (Dulbecco's Modified Eagle's Medium with 10% fetal bovine serum, 2 mM of glutamine, supplemented with penicillin and streptomycin), to which the compound Varubin (Ia) or Ib at different concentrations was added or not. On the following day, the cells were incubated with TNFα (10 ng/mL) for 4 hours, after which they were washed with phosphate buffered saline (PBS) and lysated with 250 μL of lysis buffer, following the manufacturer's (Promega) indications. 100 μL of luciferase reagent (LARII) were added to the lysate to measure the firefly luciferase activity, after which the reaction was stopped with 100 μL of stop buffer with Renilla reniformis luciferase substrate, this second activity being determined at that time. The firefly luciferase activity was standardized in relation to the Renilla luciferase activity. The values corresponding to cells transfected but not stimulated with TNFα were used as standardizers for the remaining experimental values. […]
(Reporter assays use an easily measured gene product as a stand-in for the process of interest.)

`NC(=O)CN(CCc1ccccn1)C(=O)CC1C(=O)N(CCc2ccc(F)cc2)CC(=O)N1CCc1ccc(F)cc1` (stereo not drawn) [Ib, 1,4-bis[2′-(4″-fluorophenyl)ethyl]-2-[N-aminocarbonylmethyl-N-(2′-(2″-pyridyl)ethyl)-carbonylmethyl]piperazine-3,6-dione]: in test [1], the “inhibition of the control interaction between p53 and large T” value was “Neither of these two compounds inhibits the interaction”. Besides, in test [2], the “rescue of the rad6 phenotype generated by treatment with MMS (survival)” value was “to a lesser extent” and the “rescue of the rad6 phenotype induced by UV irradiation (survival)” value is on record as “clearly rescued the rad6 phenotype”. Besides, in test [3], the “inhibition of the stimulation of the transcriptional activity of NF-κB induced by TNFα” value was “inhibits in a dose-dependent manner”.

Consider `NC(=O)CN(CCc1ccccn1)C(=O)C1CC(=O)N(CCc2ccc(F)cc2)CC(=O)N1CCc1ccc(F)cc1` (stereo not drawn) [Ia, N-aminocarbamoylmethyl-N-(2′-(2″pyridyl)ethyl)-1,4-bis[2′-(4″-fluorophenyl)ethyl]-3,7-dioxo-[1,4]diazepane-5-carboxamide], for which the “inhibition of the control interaction between p53 and large T” value in test [1] is given as “Neither of these two compounds inhibits the interaction”. Also, in test [2], the “rescue of the rad6 phenotype generated by treatment with MMS (survival)” value is “to a lesser extent” and the “rescue of the rad6 phenotype induced by UV irradiation (survival)” value was “clearly rescued the rad6 phenotype”. Besides, the “inhibition of the stimulation of the transcriptional activity of NF-κB induced by TNFα” value in test [3] was “inhibits in a dose-dependent manner”. For the same compound, the inhibition at 100 µM in test [3] (Homo sapiens, HeLa cells pre-incubated at 100 μM, read-out: inhibition of the activation of NF-κB by TNFα) is about 50%.

One may read the inhibition as the change of the read-out against control, counted positive when it falls.
